According to patent US12018278B2, “Methods for chemically induced lineage reprogramming” (BeiHao Stem Cell and Regenerative Medicine Research …, priority 2017, dated 2024):

What was measured:
[1] = tested on: induced TauEGFP-positive cells; experiment: Whole-cell patch clamp recordings on induced TauEGFP-positive neurons; type: cell-based, mouse; details: for spontaneous excitatory postsynaptic currents (EPSCs): 20 μM CNQX plus 50 μM AP5, after co-culturing with primary astrocytes
Description: Whole-cell patch clamp recordings were performed as previously described (Li et al., Cell Stem Cell, 17:195-203 (2015)). The artificial cerebrospinal fluid extracellular solution contained (in mM) 141 NaCl, 2.5 KCl, 1.3 MgCl2, 2.4 CaCl2, 1.25 NaH2PO4, 10 glucose and 10 HEPES, the pH was adjusted to 7.4 with NaOH. Patch pipettes were pulled (˜5 MΩ tip resistance) with a P97 micropipette puller (Sutter Instruments) filled with internal pipette solution contained (in mM) 140 potassium gluconate, 1 CaCl2, 10 EGTA, 2 MgCl2, 5 Na2ATP, and 10 HEPES, the pH was adjusted to 7.4 with KOH. Patch-clamp recordings were taken using an EPC-10 amplifier (HEKA) with PatchMaster. Cell membrane potentials were held typically at −80 mV and depolarized to test potentials from −80 to +80 mV in 10 mV increments to record the sodium and potassium currents. The sample was 20 μs and sweep intervals were 2 s. For current-clamp recordings, a hyperpolarized current was injected into chemical neurons to membrane potentials around −70 mV. Action potentials were elicited by step-depolarized currents with sweep intervals of 3 s. The cells were held at 0 pA to record the resting membrane potentials. In current-clamp mode, the sample frequency was 25 kHz. Induced neurons identified by GFP were co-cultured with mouse primary astrocytes to record spontaneous excitatory postsynaptic currents (sEPSCs) or spontaneous inhibitory postsynaptic currents (sIPSCs). The induced neurons were held at a holding potential of −70 mV (close to the reversal potential of chloride) and 0 mV, respectively. The data were continuously digitized at 20 kHz. For neurotransmitter response, Glutamate (100 μM, Sigma-Aldrich) was dissolved in ACSF, loaded into a pipette, and puffed onto hciN cells using a picosprizer III (Parker Instrument) with 10 psi and […]. All recordings were conducted at room temperature.

[2] = tested on: mouse adult lung fibroblasts (MAFs); experiment: Induction of XEN-like cells from adult fibroblasts; type: cell-based; details: vitamin C (50 μg/ml) and CH55 (1 μM) added together to stage 1 medium; 12 days' induction
Description: Stage 1 culture medium preparation: KnockOut DMEM (Invitrogen) supplemented with 10% KSR (Invitrogen), 10% FBS (Pan-Biotech), 1% GlutaMAX™-I (Invitrogen), 1% NEAA (Invitrogen), 0.055 mM β-ME (Sigma), 1% penicillin-streptomycin (Invitrogen), 100 ng/ml bFGF (Origene) containing the small-molecule cocktail: 0.5 mM VPA, 2-4 μM TD114-2 or 20 μM CHIR, 10 μM 616452, 10 μM Tranylcypromine, 10-50 μM Forskolin, 0.05 μM AM580 and 5 μM EPZ004777 (VT6TFAE or VC6TFAE).

passaged XEN-like cells = experiment: Toxicity to passaged XEN-like cells in stage 2 neural induction medium; type: cell-based, mouse; details: 50 μM
Description: For neural induction from passaged XEN-like cells, cells were plated at 50,000-100,000 cells per well of a 6-well plate (with gelatin-coated) in stage 1 medium (day 0). Until passaged cells become 70-80% confluence on day2 or day3, switch the XEN-like cells into stage 2 neural induction medium. After 12-20 days, TauEGFP-positive colonies emerged. Considering that FSK used at high concentration 50 μM was toxic to passaged XEN-like cells at stage 2, a concentration of 10-20 μM in neural induction culture medium on passaged XEN-like cells is preferred.

CeXEN cells = experiment: Toxicity to CeXEN cells in stage 2 neural induction medium; type: cell-based, mouse; details: 50 μM
Description: CeXEN (chemically-derived eXEN) cells with TauEGFP reporter were derived from E3.5 blastocysts using stage 1 culture medium as previously reported (Zhao et al., Cell, 163:1678-1691 (2015)). Medium was changed every day and the cells were passaged at 1:20 to 1:30 every 3 days.
1. For chemical induction, CeXEN cells were plated at 50,000-100,000 cells per well of a 6-well plate (with gelatin-coated) in stage 1 medium (day 0).
2. On day2 or day3 until 70-80% confluence, cells were switched into stage 2 neural induction culture medium for 12-20 days and TauEGFP-positive cells were generated.
A relatively low initial cell density is beneficial for lineage induction from passaged CeXEN cells since the high proliferation rate of CeXEN cells. Considering that FSK used at high concentration 50 μM was toxic to CeXEN cells at stage 2, a concentration of 10-20 μM in neural induction culture medium on CeXEN cells is preferred.

XEN-like cells [3] = experiment: Stage 2 neural induction of TauEGFP-positive cells from XEN-like cells (FACS); type: cell-based, mouse; details: 0.1 μM LDN193189 and 5 μM SB431542 added to FCD; not essential to induce neurons
Description: On day 12, cells were switched into stage 2 neural specification medium. After 8-12 days induction by the stage 2 culture medium, TauEGFP-positive colonies were generated. The TauEGFP-positive colonies were further re-plated to co-culture with primary astrocytes or primary neurons for maturation.
The induced efficiency of the TauEGFP-positive cells was estimated using a FACS Calibur flow cytometer (Becton Dickinson), and the flow cytometry data were analyzed using FlowJo. For intracellular flow cytometry analyses, single-cell suspensions were stained with antibodies and analyzed using a BD FACSCalibur.

fibroblasts = experiment: Stage 1 chemical induction of XEN-like primary colonies from fibroblasts; type: cell-based, mouse; details: replacing CHIR99021 with TD114-2 in the seven-compound cocktail; XEN-like state not altered
Description: Stage 1 culture medium preparation: KnockOut DMEM (Invitrogen) supplemented with 10% KSR (Invitrogen), 10% FBS (Pan-Biotech), 1% GlutaMAX™-I (Invitrogen), 1% NEAA (Invitrogen), 0.055 mM β-ME (Sigma), 1% penicillin-streptomycin (Invitrogen), 100 ng/ml bFGF (Origene) containing the small-molecule cocktail: 0.5 mM VPA, 2-4 μM TD114-2 or 20 μM CHIR, 10 μM 616452, 10 μM Tranylcypromine, 10-50 μM Forskolin, 0.05 μM AM580 and 5 μM EPZ004777 (VT6TFAE or VC6TFAE). For mouse adult lung fibroblasts (MAFs) induction, 1 μM CH55 and 50 μg/ml Vitamin C (VC) were added enhance the induction efficiency.
TauEGFP fibroblasts were prepared as previously reported (Li et al., Cell Stem Cell, 17:195-203 (2015)). Fibroblasts were seeded at a density of 30,000-50,000 cells per well of a 6-well plate or 300,000 cells per 100 mm dish (day −1) (Fibroblast medium−DMEM basal medium+10% FBS++beta-Me(0.055 mM)+1% PS). The culture plates or dishes were precoated with 0.1% gelatin.
The medium was changed to Stage 1 culture medium (Day 0). For stage 1 chemical reprogramming, cells were induced by the culture medium containing 0.5 mM VPA, 2-4 μM TD114-2 or 20 μM CHIR, 10 μM 616452, 10 μM Tranylcypromine, 10-50 μM Forskolin, 0.05 μM AM580 and 5 μM EPZ004777(VT6TFAE or VC6TFAE)) for 12 days. Culture medium was refreshed every 4 days during the inducing period. XEN-like colonies were formed at about day 6-8.

XEN-like colonies = experiment: Long-term passaging and expansion of XEN-like cells; type: cell-based, mouse; details: TD114-2 based culture condition; ratio 1:20-30 every 3-4 days
Excerpt: Day 12 induced)(EN-like colonies (P0) were trypsinized from whole well and re-plated onto gelatin-coated culture plates at a ratio of 1:10-20 in stage 1 medium for the first passage. After the)(EN-like cells at Passage 1 become confluence, passage the cells at a ratio of 1:20-30 every 3-4 days in stage 1 medium. The XEN-like cells can be long term expanded at stage 1 medium for more than 20 passages with lineage specifying potentials.
For a single primary XEN-like colony passaging, feeder layers of mitomycin C-treated MEFs are needed. Pick up the a single primary XEN-like colony with 1 ml syringe, trypsinize for 5 min, and neutralize with stage 1 culture medium, then pipette up and down to obtain a single-cell suspension. Seed the cell suspension on feeder layers with stage 1 culture medium for further expansion. The subsequent passaging of XEN-like cells can be feeder-free.

XEN-like cells [4] = experiment: qRT-PCR of neural, fibroblast and XEN genes in the absence of single Stage 2 medium components; type: cell-based, mouse; details: genes examined in the absence of the factor; FIG. 1F

## NC(CCCP(=O)(O)O)C(=O)O (stereo not shown) [AP5, 2-amino-5-phosphonovaleric acid]
[1]
  spontaneous excitatory postsynaptic currents (EPSCs): blocked

## CC(C)(C)c1cc(C(=O)/C=C/c2ccc(C(=O)O)cc2)cc(C(C)(C)C)c1 [CH55]
[2]
  efficiency of generating XEN-like cells from adult fibroblasts: significantly improved

## N#Cc1cc2[nH]c(=O)c(=O)[nH]c2cc1[N+](=O)[O-] [CNQX, 6-cyano-1007-nitroquinoxaline-2,3-dione]
[1]
  spontaneous excitatory postsynaptic currents (EPSCs): blocked

## C=C[C@@]1(C)CC(=O)[C@]2(O)[C@@]3(C)[C@@H](O)CCC(C)(C)[C@@H]3[C@H](O)[C@H](OC(C)=O)[C@@]2(C)O1 [Forskolin]
Passaged XEN-like cells
  toxicity to passaged XEN-like cells at stage 2: toxic
CeXEN cells
  toxicity to CeXEN cells at stage 2: toxic

## N[C@@H](CCC(=O)O)C(=O)O [Glutamate]
[1]; 100 μM, focal application
  membrane currents on focal application: induction of inward membrane currents

## c1ccc2c(-c3cnn4cc(-c5ccc(N6CCNCC6)cc5)cnc34)ccnc2c1 [LDN193189, 4-(6-(4-(piperazin-1-yl)phenyl)pyrazolo[1,5-a]pyrimidin-3-yl)quinolone]
XEN-like cells [3]
  effect on neuron induction efficiency in stage 2 medium: favorable to enhance the induction efficiency

## NC(=O)c1ccc(-c2nc(-c3ccc4c(c3)OCO4)c(-c3ccccn3)[nH]2)cc1 [SB431542, 4-[4-(1,3-benzodioxol-5-yl)-5-(2-pyridinyl)-1H-imidazol-2-yl]benzamide]
XEN-like cells [3]
  effect on neuron induction efficiency in stage 2 medium: favorable to enhance the induction efficiency

## O=C1NC(=O)C2=C1c1cn(c3ccccc13)CCOCCOCCOCCOCCn1cc2c2ccccc21 [TD114-2, 10,11,13,14,16,17,19,20,22,23-decahydro-9,4:24, 29-dimetheno-1H-dibenzo[n,t] pyrrolo[3,4-q] [1,4,7,10,13,22]-tetraoxadiazacyclotetracosine-31,33(32H) dione]
fibroblasts
  yield of the primary colonies, enhancement: 3 fold
XEN-like colonies
  long term expansion of XEN-like colonies, passages tested: at least 20 passages

## NC1=N[C@H](O)[C@H]2[C@H]3O[C@]4(O)O[C@@H]([C@@H](O)[C@@]2(N1)[C@@H]4O)[C@]3(O)CO [TTX, tetrodotoxin]
[1]
  sodium currents (inward currents, voltage-clamp): blocked

## O=C1O[C@H]([C@@H](O)CO)C(O)=C1O [vitamin C]
[2]
  efficiency of generating XEN-like cells from adult fibroblasts: significantly improved

B1: GDNF: growth factor in Stage 2 neural induction medium, 20 ng/ml (protein, UniProt P39905 78-211, looked up)
Glial cell line-derived …: SPDKQMAVLPRRERNRQAAAANPENSRGKGRRGQRGKNRGCVLTAIHLNVTDLGLGYETKEELIFRYCSGSCDAAETTYDKILKNLSRNRRLVSDKVGQACCRPIAFDDDLSFLDDNLVYHILRKHSAKRCGCI
XEN-like cells [4]
  role of the stage 2 medium component for neural-, fibroblast- and XEN-specific gene expression: important for inducing neuronal mater and functional genes
